{"source": "patent US20250332139A1", "about": "“PS[…] AND THEIR USE FOR TREATING […] AND NE[…] DISORDERS” (Transcend Therapeutics, Inc., priority 2021, published 2025)", "key": {"C57BL/6J mice": {"tested_on": "C57BL/6J mice", "settings": "MDMA 7.5 mg/kg 30 minutes prior to extinction training (Young 2015); cited from earlier work"}, "Sprague Dawley rats": {"tested_on": "Sprague Dawley rats", "settings": "cited from earlier work"}, "[1]": {"target": "norepinephrine transporter (NET) (Rattus norvegicus, UniProt Q63380)", "sequence (Q63380 1-617)": "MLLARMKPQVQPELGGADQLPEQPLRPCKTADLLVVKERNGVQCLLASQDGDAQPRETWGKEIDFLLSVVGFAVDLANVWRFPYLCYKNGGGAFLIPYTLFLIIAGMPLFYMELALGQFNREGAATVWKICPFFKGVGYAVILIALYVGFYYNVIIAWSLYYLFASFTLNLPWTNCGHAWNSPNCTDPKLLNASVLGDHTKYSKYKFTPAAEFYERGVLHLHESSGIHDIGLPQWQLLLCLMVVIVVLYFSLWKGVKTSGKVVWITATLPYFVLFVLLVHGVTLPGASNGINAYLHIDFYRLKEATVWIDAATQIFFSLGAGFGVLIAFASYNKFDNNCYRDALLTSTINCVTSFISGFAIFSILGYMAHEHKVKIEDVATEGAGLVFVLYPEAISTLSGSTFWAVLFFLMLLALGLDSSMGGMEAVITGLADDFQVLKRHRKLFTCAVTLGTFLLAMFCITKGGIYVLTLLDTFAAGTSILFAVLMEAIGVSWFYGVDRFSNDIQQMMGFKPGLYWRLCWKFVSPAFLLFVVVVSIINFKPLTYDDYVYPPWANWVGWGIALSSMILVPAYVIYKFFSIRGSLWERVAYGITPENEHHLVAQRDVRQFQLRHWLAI", "test": "Competitive radioligand binding, [3H]nisoxetine, rat brain lysates", "experimental": "(§1) Radioligands used were: [^3H] Citalopram (PerkinElmer NET1039250UC); [^3H] Nisoxetine (PerkinElmer NET1084250UC); [^3H] WIN35428 (PerkinElmer NET1033250UC). […] Rat brains were dissected and tissue was homogenized in cold lysis buffer, centrifged at 100×g for 2 min and the supernatant was placed in a fresh tube. Supernatant was centrifuged at 13,000×g for 10 min at 4° C. to re-pellet the cell lysate. The pellet was resuspended in fresh wash buffer (50 mM Tris-HCl; 5 mM MgCl2; 5 mM EDTA) and centrifuged a third time. The pellet was then resuspended in wash buffer containing 10% sucrose as a cryoprotectant, divided into aliquots (0.3 mL) and stored at −80° C. A sample of the homogenate was analyzed for protein content using the SIGMA® BCA assay. On the day of the assay, the membrane preparation was thawed, and the pellet resuspended in final assay buffer. […] To each well was added 150 μL membranes, 50 μL of non-specific compound or buffer and 50 μL radioligand solution in buffer. […] Ki was subsequently calculated using the Cheng-Prusoff equation."}, "[2]": {"target": "T1, Human serotonin 5HT2B receptor (Homo sapiens, UniProt P41595)", "T1 construct": "host or cells: receptor-expressing membranes", "T1 sequence (P41595 whole entry)": "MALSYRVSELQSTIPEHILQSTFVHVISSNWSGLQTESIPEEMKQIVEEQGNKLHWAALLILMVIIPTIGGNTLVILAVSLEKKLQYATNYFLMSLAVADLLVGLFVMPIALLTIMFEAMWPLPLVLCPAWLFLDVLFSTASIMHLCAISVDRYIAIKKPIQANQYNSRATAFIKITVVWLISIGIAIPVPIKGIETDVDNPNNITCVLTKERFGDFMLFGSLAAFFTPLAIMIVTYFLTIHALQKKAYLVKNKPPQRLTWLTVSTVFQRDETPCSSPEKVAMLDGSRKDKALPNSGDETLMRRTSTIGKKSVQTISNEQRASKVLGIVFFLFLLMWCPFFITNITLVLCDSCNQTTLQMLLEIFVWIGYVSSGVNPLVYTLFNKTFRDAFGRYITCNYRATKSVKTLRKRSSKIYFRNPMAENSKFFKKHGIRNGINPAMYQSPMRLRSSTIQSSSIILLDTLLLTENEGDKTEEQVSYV", "test": "5HT2B competitive radioligand binding", "settings": "ratio of Ki values", "experimental": "Human serotonin 5HT2B receptor membrane preparations were divided into aliquots. On the day of the assay, membranes were diluted at 1:200 in incubation buffer. […] To each well was added 150 μL membrane preparation, 50 μL test compound, non-specific compound, or buffer alone, as well as 50 μL radioligand. The plate was incubated at 35° C. for 90 minutes with gentle agitation. […] For each concentration of drug, non-specific binding was subtracted from total binding to give specific binding. […] Ki was subsequently calculated using the ChengPrusoff equation."}, "[3]": {"target": "T2, serotonin transporter (SERT) (Rattus norvegicus, UniProt P31652)", "T2 construct": "from tissue; synaptosomes for uptake and release", "T2 sequence (P31652 whole entry)": "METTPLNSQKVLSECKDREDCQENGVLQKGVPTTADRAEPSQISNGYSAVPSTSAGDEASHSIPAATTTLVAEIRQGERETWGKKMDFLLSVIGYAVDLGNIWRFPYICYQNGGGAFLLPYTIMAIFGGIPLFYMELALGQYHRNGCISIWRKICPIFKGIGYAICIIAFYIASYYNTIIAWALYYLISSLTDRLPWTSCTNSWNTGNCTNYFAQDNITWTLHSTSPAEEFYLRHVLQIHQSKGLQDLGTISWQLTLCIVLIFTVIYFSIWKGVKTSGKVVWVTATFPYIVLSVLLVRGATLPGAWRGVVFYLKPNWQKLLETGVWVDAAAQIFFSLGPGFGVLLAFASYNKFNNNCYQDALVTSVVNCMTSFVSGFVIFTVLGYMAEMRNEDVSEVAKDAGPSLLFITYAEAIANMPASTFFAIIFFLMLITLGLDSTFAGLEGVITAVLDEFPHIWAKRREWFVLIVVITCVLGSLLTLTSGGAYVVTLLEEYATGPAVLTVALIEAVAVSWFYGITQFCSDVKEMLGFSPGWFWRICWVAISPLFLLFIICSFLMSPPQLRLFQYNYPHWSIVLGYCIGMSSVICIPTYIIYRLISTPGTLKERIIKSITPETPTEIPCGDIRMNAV", "test": "Competitive radioligand binding, [3H]citalopram, rat brain lysates", "experimental": "as §1"}, "[4]": {"target": "T3, dopamine transporter (DAT) (Rattus norvegicus, UniProt P23977)", "T3 construct": "from tissue; synaptosomes for uptake and release", "T3 sequence (P23977 whole entry)": "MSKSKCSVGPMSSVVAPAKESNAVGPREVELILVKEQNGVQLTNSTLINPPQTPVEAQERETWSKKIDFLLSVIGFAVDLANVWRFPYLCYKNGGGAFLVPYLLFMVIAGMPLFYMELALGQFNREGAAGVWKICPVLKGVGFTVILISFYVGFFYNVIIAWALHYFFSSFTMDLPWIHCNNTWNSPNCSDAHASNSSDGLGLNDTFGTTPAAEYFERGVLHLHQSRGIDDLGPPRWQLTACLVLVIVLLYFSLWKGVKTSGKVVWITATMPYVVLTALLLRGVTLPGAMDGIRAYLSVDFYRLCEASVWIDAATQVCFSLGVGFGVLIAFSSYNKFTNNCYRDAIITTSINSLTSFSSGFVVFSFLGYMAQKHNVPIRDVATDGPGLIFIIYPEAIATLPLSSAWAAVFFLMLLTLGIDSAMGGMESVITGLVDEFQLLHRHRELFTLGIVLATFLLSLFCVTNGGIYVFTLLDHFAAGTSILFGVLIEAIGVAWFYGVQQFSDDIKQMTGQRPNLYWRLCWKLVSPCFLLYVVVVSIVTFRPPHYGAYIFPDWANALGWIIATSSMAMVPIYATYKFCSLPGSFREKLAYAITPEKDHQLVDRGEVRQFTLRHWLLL", "test": "Competitive radioligand binding, [3H]WIN35428, rat brain lysates", "experimental": "as §1"}, "[5]": {"tested_on": "myelin basic protein (MBP) in the amygdala", "test": "Immunohistochemistry of myelin basic protein", "format": "in vivo, rat", "settings": "10 mg/kg IP, single dose, 24 h", "experimental": "Immunohistochemistry: The in-life portion of the study was conducted at WuXi Apptec (Cranbury, NJ). Sectioning and staining of brains took place at Neuroscience Associates (NSA, Knoxville, TN). […] Brains were post-fixed in PFA before shipment to NSA for processing and staining. Hemisected brains were mounted, sectioned and stained using standard protocols with myelin-basic protein primary antibody (MBP SMI-99, 1:5000, Biolegend, San Diego, CA) and anti-mouse biotinylated secondary antibody (BA-2001, Vector Laboratories, Newark, CA). Slides were imaged using a Huron Digital Pathology TissueScope LE120 whole slide scanning system. 20× objective was used with a 0.4 μm/pixel resolution."}}, "note": "Read-outs that look alike come from different tables or passages of the source.", "data": [{"smiles": "CNC(C)Cc1ccc2c(c1)OCO2", "note": "(racemic) [MDMA, 3,4-Methylenedioxymethamphetamine]", "values": [{"measurement": "reduced freezing (extinction recall) vs saline", "setting": "C57BL/6J mice", "value": 35, "unit": "%"}, {"measurement": "reduction in immobility", "setting": "Sprague Dawley rats; MDMA 5 mg/kg, Flinders Sensitive Line rats (Majumder 2011)", "value": 45, "unit": "%"}, {"measurement": "reduction in immobility", "setting": "Sprague Dawley rats; MDMA 5 mg/kg, Sprague Dawley rats (Majumder 2011)", "value": 45, "unit": "%"}, {"measurement": "reduction in immobility", "setting": "Sprague Dawley rats; MDMA 10 mg/kg, Flinders Sensitive Line rats (Majumder 2011)", "value": 93, "unit": "%"}, {"measurement": "reduction in immobility", "setting": "Sprague Dawley rats; MDMA 10 mg/kg, Sprague Dawley rats (Majumder 2011)", "value": 78, "unit": "%"}, {"measurement": "Ki", "setting": "[1]", "value": 790, "unit": "nM"}, {"measurement": "times greater affinity for the 5HT2B receptor compared with methylone", "setting": "[2]", "value": 7.5, "unit": "times"}, {"measurement": "Ki", "setting": "[3]", "value": 2620, "unit": "nM"}, {"measurement": "Ki", "setting": "[4]", "value": 5110, "unit": "nM"}, {"measurement": "MBP level in basolateral and central nuclei of the amygdala vs vehicle", "setting": "[5]", "value": "significant reduction in MBP"}]}]}
